{"source": "patent US20150246074A1", "about": "“METHODS OF A[…] TOLERANCE” (The Board of Trustees of the University of Illinois, priority 2014, published 2015)", "key": {"SH-SY5Y cells": {"system": "SH-SY5Y cells", "experiment": "cAMP accumulation assay in morphine-treated SH-SY5Y cells", "assay_type": "cell-based, human", "conditions": "for cAMP levels: 24 h, SH-SY5Y cells, control not treated with morphine = 100%", "procedure": "Culture of SH-SY5Y Cells. SH-SY5Y cells, a well-established stable human neuroblastoma cell line, were purchased from American Type Culture Collection (ATCC, Manassas, Va.) and grown in Dulbecco's modified Eagle's medium (DMEM) with 10% fetal bovine serum, […] penicillin, and 100 μg/ml streptomycin at 37° C. in a 5% CO2 humidified incubator (Fisher). Before experiments, SH-SY5Y cells were treated with 10 μM retinoic acid (RA) for 6 days to induce neuronal differentiation. These differentiated SH-SY5Y cells were then treated with morphine (10 μM) for 24 h unless otherwise specified.\ncAMP Accumulation Assay. Levels of cAMP, which is involved in a cellular mechanism of opioid tolerance development, were determined in morphine-treated SH-SY5Y cells. Thirty-six hours after co-culturing with hMSCs or HDFs, SH-SY5Y cells were harvested with a non-enzymatic cell dissociation solution and washed once with HBSS buffer. cAMP accumulation in SH-SY5Y cells was assayed using a LANCE™ cAMP kit (PerkinElmer, Waltham, Mass.) according to the manufacturer's protocol. SH-SY5Y cells were centrifuged at 1000 g for 2 min, resuspended at a concentration of 2×10^6 cells/ml in stimulation buffer (1×HBSS, 5 mM HEPES, 0.1% BSA, 0.5 mM IBMX, pH 7.4) and mixed with 50 μM forskolin. Alexa pluor® 647 labeled antibody was added to the cell suspension and the cells were incubated at 37° C. for additional 15 min, and detection mix was then added to the final cell suspension. The cell sample was further incubated for 1 h in the dark and read on a TECAN instrument (San Jose, Calif.) to measure the LANCE signal. The LANCE signal obtained at […] was directly used to analyze the cAMP levels. The signal at […] was used to identify dispensing or quenching problems. The cAMP standard curve was assayed according to the manufacturer's instructions. The cAMP formation was calculated as the percentage of forskolin-stimulated cAMP accumulation without morphine, which was defined as 100%. All data were expressed as mean±SD. Statistical comparisons were analyzed using Prism software. […]"}, "Sprague-Dawley rats [1]": {"system": "Sprague-Dawley rats", "experiment": "Withdrawal thresholds to mechanical stimulation (von Frey) in rats, MSC transplantation and daily morphine", "assay_type": "in vivo, rat", "procedure": "(§1) Animal care and use. The experimental protocols were approved by the Institutional Animal Care and Use Committee of Cleveland Clinic (IACUC #: 2010-0460). Experiments were performed on 24 male Sprague-Dawley rats (250-300 g), purchased from Harlan Laboratories (Indianapolis, Ind.). The animals were housed in group cages (2 per cage), allowed free access to food and water, and maintained on a 12/12 hour light/dark cycle.\n(§2) Experimental design. Animals were habituated daily to the experimental environment for 1 week before testing. Pain sensitivity to mechanical or thermal stimuli applied to the hindpaws was determined by the thresholds of withdrawal of the hindlimbs from the stimuli. […] The effects of MSC transplantation or PBS injection on morphine-induced tolerance were evaluated every other day. […]\n(§3) Stem cell transplantation. […] Immediately before transplantation, the cells were gently dissociated with 0.25% Trypsin, pelleted by centrifugation, counted by trypan blue exclusion, and suspended in 50 μl of PBS. […]\n(§4) Behavioral tests. […] Withdrawal thresholds were quantified as the mechanical pressure in grams applied to the hindpaws through calibrated filaments (von Frey filaments) or the time interval in seconds between the activation of an infrared thermal stimulation and the withdrawal of the limb. […]"}, "Sprague-Dawley rats [2]": {"system": "Sprague-Dawley rats", "experiment": "Withdrawal thresholds to thermal stimulation (plantar test) in rats, MSC transplantation and daily morphine", "assay_type": "in vivo, rat", "conditions": "control group, Day 17 and thereafter, daily morphine, p<0.05", "procedure": "as §1, §2, §3, §4"}}}
{"smiles": "CN1CC[C@]23c4c5ccc(O)c4O[C@H]2[C@@H](O)C=C[C@H]3[C@H]1C5", "note": "[morphine]", "values": [{"measurement": "cAMP levels", "setting": "SH-SY5Y cells; 1 μM morphine", "value": "150.7±20.6 % of control"}, {"measurement": "cAMP levels", "setting": "SH-SY5Y cells; 10 μM morphine", "value": "241.6±19.6 % of control"}, {"measurement": "cAMP levels over time", "setting": "SH-SY5Y cells; 10 μM morphine, at 24 and 48 h vs 0 h, p<0.001 (FIG. 2)", "value": "significant increase of cAMP"}, {"measurement": "withdrawal thresholds to mechanical stimulation (morphine tolerance)", "setting": "Sprague-Dawley rats [1]; control (PBS) group, daily s.c. morphine 7.5 mg/kg, within five days", "value": "gradually and significantly reduced"}, {"measurement": "mean mechanical withdrawal thresholds vs pre-morphine value at day 11", "setting": "Sprague-Dawley rats [1]; control group, Day 15, 4 days after start of daily morphine injections, t=15.639, p<0.001", "value": "dramatically decreased"}, {"measurement": "withdrawal thresholds to thermal stimulation vs pre-morphine values at day 11", "setting": "Sprague-Dawley rats [2]", "value": "significantly reduced"}]}
